Usually Emax stands for the greatest response seen or fitted, relative to the assay's reference. In general, EC50 refers to the concentration needed to bring the measured effect to its halfway point.

Molecules are shown by their SMILES. Some results are limits rather than exact numbers.

Assay [1] can be described thus: Induction of chondrogenesis in human MSC assessed as maximum activity at 10 nM incubated for 6 days by rhodamine B and Nile red staining based imaging analysis relative to control. The settings on record: BMMSC, 144 h, time 6 day. The format is functional.
Assay [2] can be described thus: Effect on Wnt signaling pathway in human SW480 cells harbouring TCF/LEF luciferase reporter gene and SP5-Luc reporter gene incubated for 36 to 48 hrs by luminescence assay. It counts as cell-based. In general terms: A reporter such as luciferase makes a cellular process visible.
Assay [3] concerns the target Dual specificity tyrosine-phosphorylation-regulated kinase 1A (Homo sapiens, UniProt Q13627). In words: Inhibition of recombinant DYRK1A (unknown origin) using Ser/Thr 18 peptide as substrate incubated for 1 hr in presence of ATP by FRET assay.
Assay [4] is described as follows: Induction of chondrogenesis in human MSC assessed as incubated for 6 days by rhodamine B and Nile red staining based imaging analysis. It counts as functional. Particulars: bmmsc.

For the compound `COc1cccc(-c2nccc3[nH]c(-c4n[nH]c5ccc(-c6cccnc6)nc45)nc23)c1`, the Emax at 0.01 µM in assay [1] is 50.6%. Moreover, the EC50 in assay [2] was found to be 377 nM; in assay [3] it was 26 nM; in assay [4], 30 nM.

On to `COc1cncc(C(=O)Nc2c[nH]nc2C(=O)Nc2ccc(OCCN3CCCC3)nc2)c1`, for which the Emax at 0.01 µM in assay [1] stood at 106%. In addition, the EC50 was 22.3 nM in assay [2], 12 nM in assay [3] and 10 nM in assay [4].

Turning to `CC(C)Nc1cncc(-c2cnc3[nH]nc(-c4cc5c(-c6cccnc6)ccnc5[nH]4)c3c2)c1`, the Emax at 0.01 µM in assay [1] came to 135%. Further, the 50% effective concentration (EC50) in assay [2] was greater than 10000 nM; in assay [3], 18 nM; in assay [4] it was 10 nM.

In the case of `O=C(Nc1cncc(-c2cc3c(-c4cc5cnccc5[nH]4)n[nH]c3cn2)c1)C1CCCCC1`, in assay [1], the Emax at 0.01 µM was determined as 59.4%. The EC50 worked out at 1620 nM in assay [2], 3 nM in assay [3] and 30 nM in assay [4].

`CN(C)CCNc1cc(F)cc(-c2cccc3[nH]c(-c4n[nH]c5cnc(-c6cncc(O)c6)cc45)cc23)c1`: the Emax at 0.01 µM in assay [1] came out at 66.4%. Besides, the EC50 in assay [2] was found to be 405 nM; in assay [3], 60 nM; in assay [4] it was 10 nM.

In the case of `CCCC(=O)Nc1cncc(-c2cc3c(-c4cc5c(-c6cc(F)cc(NCCN(C)C)c6)ccnc5[nH]4)n[nH]c3cn2)c1`, the Emax at 0.01 µM in assay [1] was 162%. The EC50 is greater than 10000 nM in assay [2], 39 nM in assay [3] and 10 nM in assay [4].

Take `CN(C)Cc1cncc(-c2ccc3[nH]nc(-c4nc5c(-c6cccc(F)c6)nccc5[nH]4)c3n2)c1`: in assay [1], the Emax at 0.01 µM is 75.6%. The EC50 in assay [2] turned out to be 1050 nM; in assay [3] it was 48 nM; in assay [4], 30 nM.

Consider `CC(C)Nc1cncc(-c2ccc3[nH]nc(-c4nc5c(-c6cccnc6)cncc5[nH]4)c3n2)c1`, for which the Emax at 0.01 µM in assay [1] is 64.6%. In addition, the EC50 in assay [2] amounted to 1270 nM; in assay [3], 15 nM; in assay [4] it was 30 nM.

`CC(C)C(=O)Nc1cncc(-c2cc3c(-c4cc5c(-c6cccnc6)cccc5[nH]4)n[nH]c3cn2)c1`: the Emax at 0.01 µM in assay [1] was found to be 201%. The EC50 is 275 nM in assay [2], 77 nM in assay [3] and 10 nM in assay [4].

For the compound `c1cnc2[nH]c(-c3n[nH]c4ccc(-c5cncc(CN6CCCCC6)c5)cc34)cc2c1`, the maximal effect (Emax) at 0.01 µM in assay [1] stood at 50.8%. For the same compound, the EC50 turned out to be 1670 nM in assay [2], 4 nM in assay [3] and 10 nM in assay [4].

As for `Cc1ccc(-c2cccc3[nH]c(-c4n[nH]c5ccc(-c6cncc(N)c6)nc45)nc23)s1`, in assay [1], the Emax at 0.01 µM was determined as 87.9%. Moreover, the EC50 is 66.3 nM in assay [2], 20 nM in assay [3] and 10 nM in assay [4].

Consider `CCNCc1cncc(-c2ccc3[nH]nc(-c4cc5cccnc5[nH]4)c3n2)c1`, for which the Emax at 0.01 µM in assay [1] is 79.9%. Further, the EC50 was 3760 nM in assay [2], 29 nM in assay [3] and 10 nM in assay [4].

For the compound `c1ccc2[nH]c(-c3n[nH]c4ncc(-c5cncc(CN6CCCC6)c5)cc34)cc2c1`, the Emax at 0.01 µM in assay [1] was 97.6%. In addition, the EC50 in assay [2] was found to be 1410 nM; in assay [3], 56 nM; in assay [4], 10 nM.

In the case of `CCCCC(=O)Nc1cncc(-c2cc3c(-c4cc5c(-c6cc(F)cc(CNS(C)(=O)=O)c6)nccc5[nH]4)n[nH]c3cn2)c1`, the Emax at 0.01 µM in assay [1] amounted to 111%. The EC50 in assay [2] was greater than 10000 nM; in assay [3], 62 nM; in assay [4] it was 10 nM.

Consider `O=C(CC1CCNCC1)Nc1cncc(-c2ccc3[nH]nc(-c4cc5c(-c6ccoc6)ccnc5[nH]4)c3n2)c1`, for which the Emax at 0.01 µM in assay [1] came out at 102%. For the same compound, the results for the EC50 in assay [2], in assay [3] and in assay [4] were greater than 10000 nM, 64 nM and 10 nM, respectively.

Regarding `O=C(Nc1cncc(-c2ccc3[nH]nc(-c4cc5c(-c6cccnc6)cncc5[nH]4)c3c2)c1)c1ccccc1`, the Emax at 0.01 µM in assay [1] was determined as 68.5%. The EC50 in assay [2] is greater than 10000 nM; in assay [3], 35 nM; in assay [4] it was 10 nM.

Turning to `c1cncc(-c2ccc3[nH]nc(-c4cc5cccnc5[nH]4)c3n2)c1`, in assay [1], the Emax at 0.01 µM turned out to be 65.9%. For the same compound, the EC50 is greater than 10000 nM in assay [2], 24 nM in assay [3] and 10 nM in assay [4].

In the case of `CN1CCN(c2nccc3[nH]c(-c4n[nH]c5cnc(-c6cncc(NC(=O)c7ccccc7)c6)cc45)cc23)CC1`, the Emax at 0.01 µM in assay [1] was determined as 67%. Further, the EC50 in assay [2] was 2800 nM; in assay [3], 4 nM; in assay [4], 10 nM.

Consider `CCNCc1cncc(-c2cnc3[nH]nc(-c4cc5c(-c6cccnc6)ccnc5[nH]4)c3c2)c1`, for which, in assay [1], the Emax at 0.01 µM is 91.8%. The EC50 was greater than 10000 nM in assay [2], 26 nM in assay [3] and 10 nM in assay [4].

Turning to `c1cncc(-c2ccc3[nH]nc(-c4nc5c(-c6cccnc6)cccc5[nH]4)c3n2)c1`, the Emax at 0.01 µM in assay [1] is 57.8%. Moreover, the figures for the EC50 in assay [2], in assay [3] and in assay [4] were 1120 nM, 53 nM and 30 nM, respectively.

As for `O=C(Nc1cncc(-c2ccc3[nH]nc(-c4nc5c(-c6ccc(Cl)s6)nccc5[nH]4)c3n2)c1)C1CCC1`, the Emax at 0.01 µM in assay [1] came to 60.2%. Moreover, the results for the EC50 in assay [2], in assay [3] and in assay [4] were 823 nM, 92 nM and 30 nM, respectively.

`c1cc(-c2cncc3[nH]c(-c4n[nH]c5ccc(-c6cncc(CN7CCCCC7)c6)nc45)cc23)ccn1`: the Emax at 0.01 µM in assay [1] was found to be 97.1%. In addition, the EC50 in assay [2] is greater than 10000 nM; in assay [3] it was 20 nM; in assay [4], 10 nM.

`CC(C)Nc1cncc(-c2cc3c(-c4cc5c(-c6cccnc6)ccnc5[nH]4)n[nH]c3cn2)c1`: the Emax at 0.01 µM in assay [1] is 77%. In addition, the figures for the EC50 in assay [2], in assay [3] and in assay [4] were greater than 10000 nM, 19 nM and 10 nM, respectively.

As to `CN(C)CCNc1cc(F)cc(-c2cccc3[nH]c(-c4n[nH]c5ccc(-c6cncnc6)nc45)cc23)c1`, the Emax at 0.01 µM in assay [1] was 181%. In addition, the values for the EC50 in assay [2], in assay [3] and in assay [4] were 420 nM, 75 nM and 10 nM, respectively.

Take `CC(C)CC(=O)Nc1cncc(-c2cc3c(-c4cc5c(-c6cccs6)nccc5[nH]4)n[nH]c3cn2)c1`: in assay [1], the Emax at 0.01 µM was determined as 81.4%. Moreover, the EC50 in assay [2] was 572 nM; in assay [3] it was 44 nM; in assay [4] it was 10 nM.

Regarding `O=C(Nc1cncc(-c2cnc3[nH]nc(-c4cc5c(-c6ccccc6F)cncc5[nH]4)c3c2)c1)C1CC1`, the Emax at 0.01 µM in assay [1] is 52.1%. Moreover, the EC50 turned out to be 390 nM in assay [2], 48 nM in assay [3] and 10 nM in assay [4].

For the compound `Cc1ncc(-c2cnc3[nH]nc(-c4cc5c(-c6ccncc6)cncc5[nH]4)c3c2)n1C`, the Emax at 0.01 µM in assay [1] is 194%. Besides, the EC50 in assay [2] was greater than 10000 nM; in assay [3], 28 nM; in assay [4], 10 nM.

In the case of `Clc1ccc(-c2cncc3[nH]c(-c4n[nH]c5ccc(-c6cncc(CN7CCCC7)c6)nc45)nc23)s1`, the Emax at 0.01 µM in assay [1] turned out to be 62%. For the same compound, the EC50 in assay [2] turned out to be 3330 nM; in assay [3] it was 54 nM; in assay [4] it was 10 nM.

As to `CS(=O)(=O)NCc1cc(F)cc(-c2nccc3[nH]c(-c4n[nH]c5cnc(-c6cncc(CNCC7CCCC7)c6)cc45)cc23)c1`, in assay [1], the Emax at 0.01 µM stood at 52.3%. In addition, the results for the EC50 in assay [2], in assay [3] and in assay [4] were greater than 10000 nM, 27 nM and 30 nM, respectively.

On to `c1ccc(CNCc2cncc(-c3ccc4[nH]nc(-c5cc6c(-c7cccs7)cncc6[nH]5)c4c3)c2)cc1`, for which the Emax at 0.01 µM in assay [1] came out at 57.4%. In addition, the results for the EC50 in assay [2], in assay [3] and in assay [4] were 578 nM, 63 nM and 10 nM, respectively.

Turning to `CN(C)c1cncc(-c2ccc3[nH]nc(-c4nc5c(-c6cccs6)cncc5[nH]4)c3n2)c1`, the Emax at 0.01 µM in assay [1] is 65.6%. Besides, the EC50 in assay [2] is 710 nM; in assay [3] it was 34 nM; in assay [4], 10 nM.

For the compound `CC(C)Nc1cncc(-c2cnc3[nH]nc(-c4cc5c(-c6ccccc6F)nccc5[nH]4)c3c2)c1`, in assay [1], the Emax at 0.01 µM is 75.8%. Besides, the EC50 came out at 435 nM in assay [2], 44 nM in assay [3] and 10 nM in assay [4].

As to `Fc1ccc(-c2cncc3[nH]c(-c4n[nH]c5ncc(-c6cncnc6)cc45)cc23)cc1`, the Emax at 0.01 µM in assay [1] was found to be 23.8%. The EC50 was found to be 594 nM in assay [2] and 21 nM in assay [3].

Consider `c1cncc(-c2cnc3[nH]nc(-c4cc5cccnc5[nH]4)c3c2)c1`, for which the Emax at 0.01 µM in assay [1] worked out at 11%. Also, the EC50 in assay [2] worked out at 1060 nM; in assay [3] it was 9 nM.

In the case of `CC(C)CC(=O)Nc1cncc(-c2ccc3[nH]nc(-c4nc5c(-c6cccs6)cncc5[nH]4)c3c2)c1`, the Emax at 0.01 µM in assay [1] is 53.3%. Further, the EC50 in assay [2] is 0.1 nM; in assay [3] it was 19 nM.

For `CC(C)CC(=O)Nc1cncc(-c2ccc3[nH]nc(-c4cc5c(-c6cc(F)cc(CNS(C)(=O)=O)c6)nccc5[nH]4)c3n2)c1`, in assay [1], the Emax at 0.01 µM worked out at 33.1%. In addition, the EC50 in assay [2] worked out at 479 nM; in assay [3] it was 14 nM.

As for `CC(C)CC(=O)Nc1cncc(-c2ccc3[nH]nc(-c4cc5c(N6CCN(C)CC6)ccnc5[nH]4)c3n2)c1`, in assay [1], the Emax at 0.01 µM was found to be 49.5%. Also, the EC50 in assay [2] was 3450 nM; in assay [3] it was 5 nM.

On to `CCC(=O)Nc1cncc(-c2ccc3[nH]nc(-c4cc5c(-c6cccc(F)c6)nccc5[nH]4)c3c2)c1`, for which, in assay [1], the Emax at 0.01 µM was determined as 16.2%. The EC50 in assay [2] was determined as 45 nM; in assay [3], 18 nM.

As to `CC(C)Nc1cncc(-c2ccc3[nH]nc(-c4nc5c(-c6ccccc6F)cncc5[nH]4)c3c2)c1`, the Emax at 0.01 µM in assay [1] is 56.8%. The results for the EC50 in assay [2] and in assay [3] were 1 nM and 36 nM, respectively.

Consider `CN1CCN(c2ccnc3[nH]c(-c4n[nH]c5ccc(-c6cncc(N)c6)nc45)nc23)CC1`, for which the Emax at 0.01 µM in assay [1] was 46.9%. The EC50 in assay [2] is greater than 10000 nM; in assay [3] it was 93 nM.
